Earlier results, collected in patent publication US20030171388A1, “Cosmetic or dermatological cream composition, the preparation and the use thereof” (priority 2003, published 2003).

Tested on: liver cell cultures

SMILES: C[N+](C)(C)C[C@H](O)CC(=O)[O-] [L-carnitine, 3-carboxy-2-hydroxy-N,N,N-trimethyl-1-propanamium-hydroxide]
- effect on the membrane potential of the mitochondrion: did not cause a loss in the membrane potential of the mitochondrion
- prevention of cell deaths: able to prevent cell deaths
